Assay results published in patent publication EP3262036B1, “THERAPEUTIC PYRIDAZINE COMPOUNDS AND USES THEREOF” (priority 2015, dated 2016).

What was measured:
Assay in all cases: biochemical
[1] = target: BRM (Isoform 2) Bromodomain (Homo sapiens, UniProt P51531)
Description: IC50 measurements for inhibitors using BRM SM TR-FRET Binding Assay

[2] = target: Polybromodomain-1 BromoDomain-5 (PB1-BD5) (Homo sapiens, UniProt Q86U86)
Description: IC50 measurements for inhibitors using Polybromodomain-1 BromoDomain-5 (PB1-BD5) SM TR-FRET Binding Assay

BRG1 = BRG1 (Homo sapiens, UniProt P51532); type: binding; details: BRG1 HTRF IC50 (µM)
Description: IC50 measurements for inhibitors using BRG1 TR-FRET Binding Assay

Chain of BRM (Isoform 2) Bromodomain (P51531 1377-1486 isoform P51531-2): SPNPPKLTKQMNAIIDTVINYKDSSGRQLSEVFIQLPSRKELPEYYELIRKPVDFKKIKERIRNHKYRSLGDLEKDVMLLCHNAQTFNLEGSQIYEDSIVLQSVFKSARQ
Chain of Polybromodomain-1 BromoDomain-5 (PB1-BD5) (Q86U86 645-766): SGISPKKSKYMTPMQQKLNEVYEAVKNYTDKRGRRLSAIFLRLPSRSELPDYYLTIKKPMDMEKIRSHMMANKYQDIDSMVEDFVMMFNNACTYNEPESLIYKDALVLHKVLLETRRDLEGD
Chain of BRG1 (P51532 1448-1575): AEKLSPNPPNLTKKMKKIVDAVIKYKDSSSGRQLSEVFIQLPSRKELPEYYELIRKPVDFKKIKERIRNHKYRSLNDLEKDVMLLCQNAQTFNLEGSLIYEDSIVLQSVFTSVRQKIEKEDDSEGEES

SMILES	IC50 [1]	IC50 [2]	IC50 (BRG1)
CC1CN(c2cc(-c3ccccc3O)nnc2N)CC(C)O1 (racemic) [Example 33, 2-(6-amino-5-(2,6-dimethylmorpholino)pyridazin-3-yl)phenol]	69.6 nM	24 nM	–
Nc1nnc(-c2ccccc2O)cc1N1CCN(Cc2cccnc2)CC1 [Example 3, 2-(6-amino-5-(4-(pyridin-3-ylmethyl)piperazin-1-yl)pyridazin-3-yl)phenol]	–	25.2 nM	0.0373 µM
CC(=O)N1CCN(c2cc(-c3ccccc3O)nnc2N)CC1 [Example 4, 1-(4-(3-amino-6-(2-hydroxyphenyl)pyridazin-4-yl)piperazin-1-yl)ethan-1-one]	71.7 nM	24.6 nM	0.0659 µM
CN(C)CC1CCN(c2cc(-c3ccccc3O)nnc2N)CC1 [Example 5, 2-(6-amino-5-(4-((dimethylamino)methyl)piperidin-1-yl)pyridazin-3-yl)phenol]	22.5 nM	–	0.0395 µM
Nc1nnc(-c2ccccc2O)cc1N1C[C@H]2CN(Cc3ccccc3)C[C@H]2C1 [Example 9, 2-(6-amino-5-((3aR,6aS)-5-benzylhexahydropyrrolo[3,4-c]pyrrol-2(1H)-yl)pyridazin-3-yl)phenol]	47.6 nM	18.2 nM	0.0615 µM
CC(c1ccccc1)N1CCN(c2cc(-c3ccccc3O)nnc2N)CC1 (stereo not drawn) [Example 15, 2-(6-amino-5-(4-(1-phenylethyl)piperazin-1 - yl)pyridazin-3-yl)phenol]	36.1 nM	24.5 nM	–
Nc1nnc(-c2ccccc2O)cc1N1CC2CCC(C1)N2Cc1ccccc1 [Example 16, 2-(6-amino-5-(8-benzyl-3,8-diazabicyclo[3.2.1]octan-3-yl)pyridazin-3-yl)phenol]	79 nM	51.3 nM	0.0563 µM
Nc1nnc(-c2ccccc2O)cc1N1CCOCC1 [Example 45, 2-(6-amino-5-morpholinopyridazin-3-yl)phenol]	71.5 nM	20.9 nM	0.101 µM
Nc1nnc(-c2ccccc2O)cc1N1CC(Oc2ccccc2)C1 [Example 57, 2-(6-amino-5-(3-phenoxyazetidin-1-yl)pyridazin-3-yl)phenol]	35.6 nM	–	0.0177 µM
CS(=O)(=O)N1CCN(c2cc(-c3ccccc3O)nnc2N)CC1Cc1ccccc1 (stereo not drawn) [Example 119, 2-(6-amino-5-(3-benzyl-4-(methylsulfonyl)piperazin-1-yl)pyridazin-3-yl)phenol]	–	23.3 nM	0.0385 µM
CC1CN(c2cc(-c3ccccc3O)nnc2N)CCN1C(=O)C(C)(C)C (stereo not drawn) [Example 129, 1-(4-(3-amino-6-(2-hydroxyphenyl)pyridazin-4-yl)-2-methylpiperazin-1-yl)-2,2-dimethylpropan-1-one]	18.4 nM	6.8 nM	0.0104 µM
CC(Oc1cc(-c2ccccc2O)nnc1N)C1CCOCC1 (stereo not drawn) [Example 168, 2-(6-amino-5-(1-(tetrahydro-2H-pyran-4-yl)ethoxy)pyridazin-3-yl)phenol]	197 nM	113 nM	0.169 µM
C[C@H](Oc1cc(-c2ccccc2O)nnc1N)c1ccccc1 [Example 170, (S)-2-(6-amino-5-(1-phenylethoxy)pyridazin-3-yl)phenol]	14.9 nM	9.6 nM	–
CN(C)CCOc1cc(-c2ccccc2O)nnc1N [Example 173, 2-(6-amino-5-(2-(dimethylamino)ethoxy)pyridazin-3-yl)phenol]	276 nM	257 nM	0.263 µM
Nc1nnc(-c2ccccc2O)cc1OCCc1ccccc1 [Example 174, 2-(6-amino-5-phenethoxypyridazin-3-yl)phenol]	19 nM	8.8 nM	0.0148 µM
CC(Cc1ccccc1)Oc1cc(-c2ccccc2O)nnc1N (stereo not drawn) [Example 177, 2-(6-amino-5-((1-phenylpropan-2-yl)oxy)pyridazin-3-yl)phenol]	92.5 nM	29.2 nM	0.1 µM

SMILES	IC50 [1]	IC50 [2]	IC50 (BRG1)
CC(COc1cc(-c2ccccc2O)nnc1N)c1ccccc1 (stereo not drawn) [Example 178, 2-(6-amino-5-(2-phenylpropoxy)pyridazin-3-yl)phenol]	7.2 nM	5.3 nM	0.0122 µM
Nc1nnc(-c2ccccc2O)cc1OC1CCN(Cc2ccccc2)C1 (stereo not drawn) [Example 180, 2-(6-amino-5-((1-benzylpyrrolidin-3-yl)oxy)pyridazin-3-yl)phenol]	59.7 nM	43.9 nM	0.0432 µM
Cn1cc(-c2cc(-c3ccccc3O)nnc2N)cn1 [Example 187, 2-(6-amino-5-(1-methyl-1H-pyrazol-4-yl)pyridazin-3-yl)phenol]	10 nM	3.7 nM	–
CC(c1ccccc1)n1cc(-c2cc(-c3ccccc3O)nnc2N)cn1 (stereo not drawn) [Example 188, 2-(6-amino-5-(1-(1-phenylethyl)-1H-pyrazol-4-yl)pyridazin-3-yl)phenol]	5.7 nM	2.5 nM	–
CN(C)Cc1ccc(-c2cc(-c3ccccc3O)nnc2N)cc1 [Example 189, 2-(6-amino-5-(4-((dimethylamino)methyl)phenyl)pyridazin-3-yl)phenol]	49.3 nM	28.8 nM	0.0222 µM
CNc1ccc(-c2ccccc2O)nn1 [Example 204, 2-(6-(methylamino)pyridazin-3-yl)phenol]	1040 nM	349 nM	0.893 µM
Nc1nnc(-c2ccccc2O)cc1C1CCCC1 [Example 210, 2-(6-amino-5-cyclopentylpyridazin-3-yl)phenol]	25 nM	14.9 nM	0.0239 µM
Nc1nnc(-c2ccccc2O)cc1C1CCN(S(=O)(=O)c2ccccc2)C1 (stereo not drawn) [Example 217, 2-(6-amino-5-(1-(phenylsulfonyl)pyrrolidin-3-yl)pyridazin-3-yl)phenol]	466 nM	268 nM	0.412 µM
Nc1nnc(-c2ccccc2O)cc1C1CCN(Cc2ccccc2)CC1 [Example 218, 2-(6-amino-5-(1-benzylpiperidin-4-yl)pyridazin-3-yl)phenol]	–	44.8 nM	0.0553 µM
Nc1nnc(-c2ccccc2O)cc1C(=O)NCc1ccccc1 [Example 234, 3-amino-N-benzyl-6-(2-hydroxyphenyl)pyridazine-4-carboxamide]	–	–	0.102 µM
C[C@@H]1CN(c2cc(-c3ccccc3O)nnc2N)C[C@@H](C)O1 [Example 242, 2-[6-amino-5-[(2R,6R)-2,6-dimethylmorpholin-4-yl]pyridazin-3-yl]phenol]	–	–	0.0589 µM
C[C@@H]1CN(c2cc(-c3ccccc3O)nnc2N)C[C@H](C)O1 [Example 243, 2-[6-amino-5-[(2S,6R)-2,6-dimethylmorpholin-4-yl]pyridazin-3-yl]phenol]	–	–	0.0324 µM
C[C@H]1CN(c2cc(-c3ccccc3O)nnc2N)C[C@H](C)O1 [Example 244, 2-[6-amino-5-[(2S,6S)-2,6-dimethylmorpholin-4-yl]pyridazin-3-yl]phenol]	–	–	0.0379 µM
Nc1nnc(-c2ccccc2O)cc1OC1CCCNC1 (stereo not drawn) [Example 245, 2-(6-amino-5-(piperidin-3-yloxy)pyridazin-3-yl)phenol]	–	–	0.281 µM
CN1CCCC(Oc2cc(-c3ccccc3O)nnc2N)C1 (stereo not drawn) [Example 246, 2-(6-amino-5-((1-methylpiperidin-3-yl)oxy)pyridazin-3-yl)phenol]	–	–	0.26 µM
CC(=O)N1CCCC(Oc2cc(-c3ccccc3O)nnc2N)C1 (stereo not drawn) [Example 247, 1-(3-((3-amino-6-(2-hydroxyphenyl)pyridazin-4-yl)oxy)piperidin-1-yl)ethanone]	–	–	0.137 µM
